Data from patent US20230312528A1, “2-OXO-IMIDAZOLIDINE-4-CARBOXAMIDES AS NAV1.8 INHIBITORS” (Merck Sharp & Dohme LLC, priority 2020, published 2023).
Several values for one entry are separate records, joined by “and”; a condition that tells them apart may be missing. Equal entries are not always repeated.

Target: human NaV1.8 (Homo sapiens (Human), UniProt Q9Y5Y9)
Assay: Nav1.8 Qube automated patch-clamp assay
Format: cell-based
Conditions: human NaV1.8 stably expressed in HEK 293 cells; automated 384-well patch-clamp; resting or inactivated state not specified
Outline: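 IC50 values from Hill-equation fits of offline percent inhibition: the 1st pulse gave resting and the 10th pulse inactivated-state inhibition. Stimulus was a 10 s, 1 Hz train to 10 mV (holding −90 mV, −67 mV interpulse) applied at room temperature to HEK293 cells stably expressing human NaV1.8 (Qube).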

human NaV1.8, sequence (Q9Y5Y9 whole entry): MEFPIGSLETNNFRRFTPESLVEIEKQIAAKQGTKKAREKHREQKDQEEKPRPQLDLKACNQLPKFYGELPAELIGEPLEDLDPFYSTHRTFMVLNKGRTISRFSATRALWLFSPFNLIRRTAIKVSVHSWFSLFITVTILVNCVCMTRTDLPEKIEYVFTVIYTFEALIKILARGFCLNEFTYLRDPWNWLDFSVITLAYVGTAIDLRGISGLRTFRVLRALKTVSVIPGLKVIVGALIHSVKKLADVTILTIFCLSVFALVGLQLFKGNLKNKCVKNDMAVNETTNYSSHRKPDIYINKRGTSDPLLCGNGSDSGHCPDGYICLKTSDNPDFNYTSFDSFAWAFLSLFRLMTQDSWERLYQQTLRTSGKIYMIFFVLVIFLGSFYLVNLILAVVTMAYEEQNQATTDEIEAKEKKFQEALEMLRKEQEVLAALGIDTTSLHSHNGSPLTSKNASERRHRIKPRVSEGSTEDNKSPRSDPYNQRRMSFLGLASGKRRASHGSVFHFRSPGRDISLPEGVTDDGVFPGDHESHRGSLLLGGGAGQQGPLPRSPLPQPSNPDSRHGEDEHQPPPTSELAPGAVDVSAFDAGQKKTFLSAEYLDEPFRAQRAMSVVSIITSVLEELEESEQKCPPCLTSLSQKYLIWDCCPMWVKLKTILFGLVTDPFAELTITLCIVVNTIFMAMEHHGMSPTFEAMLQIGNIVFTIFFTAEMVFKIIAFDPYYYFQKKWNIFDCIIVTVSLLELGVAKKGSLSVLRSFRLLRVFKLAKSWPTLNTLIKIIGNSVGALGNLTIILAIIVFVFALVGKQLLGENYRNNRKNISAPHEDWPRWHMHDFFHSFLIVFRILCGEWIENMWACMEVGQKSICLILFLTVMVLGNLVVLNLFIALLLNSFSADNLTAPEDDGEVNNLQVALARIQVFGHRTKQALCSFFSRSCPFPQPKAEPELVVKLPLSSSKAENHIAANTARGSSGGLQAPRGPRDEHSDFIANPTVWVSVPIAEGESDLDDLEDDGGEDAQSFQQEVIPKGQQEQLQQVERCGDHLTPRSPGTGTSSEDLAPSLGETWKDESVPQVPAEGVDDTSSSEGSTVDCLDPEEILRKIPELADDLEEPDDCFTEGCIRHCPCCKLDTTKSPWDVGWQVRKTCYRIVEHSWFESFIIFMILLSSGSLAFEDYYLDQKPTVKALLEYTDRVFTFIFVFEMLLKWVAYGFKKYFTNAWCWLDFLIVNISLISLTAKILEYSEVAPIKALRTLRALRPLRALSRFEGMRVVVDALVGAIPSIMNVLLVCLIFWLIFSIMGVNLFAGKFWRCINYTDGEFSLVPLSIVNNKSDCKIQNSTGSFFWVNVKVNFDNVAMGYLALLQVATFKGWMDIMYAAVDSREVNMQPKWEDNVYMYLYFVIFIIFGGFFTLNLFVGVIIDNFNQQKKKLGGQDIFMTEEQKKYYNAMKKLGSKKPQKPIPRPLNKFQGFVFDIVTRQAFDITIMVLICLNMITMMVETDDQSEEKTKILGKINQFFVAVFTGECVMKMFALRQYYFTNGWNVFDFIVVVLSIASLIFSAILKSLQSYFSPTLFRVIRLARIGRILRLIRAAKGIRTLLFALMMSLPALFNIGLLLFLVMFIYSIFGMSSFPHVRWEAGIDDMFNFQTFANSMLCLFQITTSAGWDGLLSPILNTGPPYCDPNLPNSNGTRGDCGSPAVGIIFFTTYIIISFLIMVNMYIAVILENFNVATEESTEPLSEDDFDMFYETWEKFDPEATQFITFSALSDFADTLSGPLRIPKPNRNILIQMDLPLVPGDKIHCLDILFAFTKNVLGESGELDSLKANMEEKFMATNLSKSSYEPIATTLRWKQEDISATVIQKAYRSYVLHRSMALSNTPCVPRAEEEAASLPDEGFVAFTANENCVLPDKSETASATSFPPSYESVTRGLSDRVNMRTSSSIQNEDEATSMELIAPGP

Compound | IC50
O=C1NC[C@@H](C(=O)NC(c2ccc(OCC(F)(F)F)nc2)c2ccc(F)c(Cl)c2F)N1 (single isomer, unassigned) [Example 33B, (S)—N—((R or S)-(3-chloro-2,4-difluorophenyl)(6-(2,2,2-trifluoroethoxy)pyridin-3-yl)methyl)-2-oxoimidazolidine-4-carboxamide] | 39 nM
O=C1NC[C@@H](C(=O)NC(c2ccc(F)c(Cl)c2F)[C@H]2C[C@H](C(F)(F)F)C2)N1 (single isomer, unassigned) [Example 34A, (S)—N—((R or S)-(3-chloro-2,4-difluorophenyl)(trans-3-(trifluoromethyl)cyclobutyl)methyl)-2-oxoimidazolidine-4-carboxamide] | 3.8 nM
O=C1NC[C@@H](C(=O)NC(c2ccc(F)c(Cl)c2F)[C@H]2C[C@H](C(F)(F)F)C2)N1 (single isomer, unassigned) [Example 34B, (S)—N—((R or S)-(3-chloro-2,4-difluorophenyl)(trans-3-(trifluoromethyl)cyclobutyl)methyl)-2-oxoimidazolidine-4-carboxamide] | 76 nM
O=C1NC[C@@H](C(=O)NC(c2cnc(OCC(F)(F)F)s2)c2ccc(F)c(Cl)c2F)N1 (single isomer, unassigned) [Example 35A, (S)-N-((R or S)-(3-chloro-2,4-difluorophenyl)(2-(2,2,2-trifluoroethoxy)thiazol-5-yl)methyl)-2-oxoimidazolidine-4-carboxamide] | 2.4 nM
O=C1NC[C@@H](C(=O)NC(c2cnc(OCC(F)(F)F)s2)c2ccc(F)c(Cl)c2F)N1 (single isomer, unassigned) [Example 35B, (S)-N-((R or S)-(3-chloro-2,4-difluorophenyl)(2-(2,2,2-trifluoroethoxy)thiazol-5-yl)methyl)-2-oxoimidazolidine-4-carboxamide] | 64 nM
O=C1NC[C@@H](C(=O)NC(c2cnc(OC(F)F)s2)c2ccc(F)c(Cl)c2F)N1 (single isomer, unassigned) [Example 36A, (S)-N-((R or S)-(3-chloro-2,4-difluorophenyl)(2-(difluoromethoxy)thiazol-5-yl)methyl)-2-oxoimidazolidine-4-carboxamide] | 12 nM
O=C1NC[C@@H](C(=O)NC(c2cnc(OC(F)F)s2)c2ccc(F)c(Cl)c2F)N1 (single isomer, unassigned) [Example 36B, (S)-N-((R or S)-(3-chloro-2,4-difluorophenyl)(2-(difluoromethoxy)thiazol-5-yl)methyl)-2-oxoimidazolidine-4-carboxamide] | 186 nM
O=C1NC[C@@H](C(=O)NC(c2ccc(F)c(Cl)c2F)C2CC3(C2)CC(F)(F)C3)N1 (single isomer, unassigned) [Example 37, (S)-N-((R or S)-(3-chloro-2,4-difluorophenyl)(6,6-difluorospiro[3.3]heptan-2-yl)methyl)-2-oxoimidazolidine-4-carboxamide] | 11 nM
O=C1NC[C@@H](C(=O)NC(c2cnc(C(F)(F)F)c(Cl)c2)c2ccc(F)c(Cl)c2F)N1 (single isomer, unassigned) [Example 38, (S)-N-((R or S)-(3-chloro-2,4-difluorophenyl)(5-chloro-6-(trifluoromethyl)pyridin-3-yl)methyl)-2-oxoimidazolidine-4-carboxamide] | 1.1 nM
O=C1NC[C@@H](C(=O)NC(c2ccc(OC(F)(F)F)c(Cl)c2)c2ccc(OC(F)(F)F)cn2)N1 (single isomer, unassigned) [Example 39A, (S)—N—((R or S)-(3-chloro-4-(trifluoromethoxy)phenyl)(5-(trifluoromethoxy)pyridin-2-yl)methyl)-2-oxoimidazolidine-4-carboxamide] | 1.3 nM
O=C1NC[C@@H](C(=O)NC(c2ccc(OC(F)(F)F)c(Cl)c2)c2ccc(OC(F)(F)F)cn2)N1 (single isomer, unassigned) [Example 39B, (S)—N—((R or S)-(3-chloro-4-(trifluoromethoxy)phenyl)(5-(trifluoromethoxy)pyridin-2-yl)methyl)-2-oxoimidazolidine-4-carboxamide] | 2.5 nM
O=C1NC[C@@H](C(=O)NC(c2ccc(OC(F)(F)F)cc2)c2ccc(Cl)c(C3CC3)n2)N1 (single isomer, unassigned) [Example 40A, (S)-N-((R or S)-(5-chloro-6-cyclopropylpyridin-2-yl)(4-(trifluoromethoxy)phenyl)methyl)-2-oxoimidazolidine-4-carboxamide] | 21 nM
O=C1NC[C@@H](C(=O)NC(c2ccc(OC(F)(F)F)cc2)c2ccc(Cl)c(C3CC3)n2)N1 (single isomer, unassigned) [Example 40B, (S)-N-((R or S)-(5-chloro-6-cyclopropylpyridin-2-yl)(4-(trifluoromethoxy)phenyl)methyl)-2-oxoimidazolidine-4-carboxamide] | 3.5 nM
O=C1NC[C@@H](C(=O)NC(c2ccc(OC(F)(F)F)c(Cl)c2)c2cnn(C(F)(F)F)c2)N1 (single isomer, unassigned) [Example 41A, (S)—N—((R or S)-(3-chloro-4-(trifluoromethoxy)phenyl)(1-(trifluoromethyl)-1H-pyrazol-4-yl)-l3-methyl)-2-oxoimidazolidine-4-carboxamide] | 1.7 nM
O=C1NC[C@@H](C(=O)NC(c2ccc(OC(F)(F)F)c(Cl)c2)c2cnn(C(F)(F)F)c2)N1 (single isomer, unassigned) [Example 41B, (S)—N—((R or S)-(3-chloro-4-(trifluoromethoxy)phenyl)(1-(trifluoromethyl)-1H-pyrazol-4-yl)-l3-methyl)-2-oxoimidazolidine-4-carboxamide] | 16 nM
O=C1NC[C@@H](C(=O)NC(c2cnc(OC(F)F)c(F)c2)c2ccc(F)c(Cl)c2F)N1 (single isomer, unassigned) [Example 42, (S)-N-((R or S)-(3-chloro-2,4-difluorophenyl)(6-(difluoromethoxy)-5-fluoropyridin-3-yl)methyl)-2-oxoimidazolidine-4-carboxamide] | 190 nM
O=C1NC[C@@H](C(=O)NC(c2ccc(C(F)F)nc2)c2ccc(F)c(Cl)c2F)N1 (single isomer, unassigned) [Example 43, (S)-N-((R or S)-(3-chloro-2,4-difluorophenyl)(6-(difluoromethyl)pyridin-3-yl)methyl)-2-oxoimidazolidine-4-carboxamide] | 13 nM
O=C1NC[C@@H](C(=O)NC(c2cnc(C(F)(F)F)c(F)c2)c2ccc(F)c(Cl)c2F)N1 (single isomer, unassigned) [Example 44, (S)-N-((R or S)-(3-chloro-2,4-difluoro-phenyl)(5-fluoro-6-(trifluoromethyl)pyridin-3-yl)methyl)-2-oxoimidazolidine-4-carboxamide] | 3.1 nM
O=C1NC[C@@H](C(=O)NC(c2ccc(OC(F)(F)F)nc2)c2ccc(F)c(C(F)(F)F)n2)N1 (single isomer, unassigned) [Example 45A, (S)-N-((R or S)-(5-fluoro-6-(trifluoro-methyl)pyridin-2-yl)(6-(trifluoromethoxy)pyridin-3-yl)methyl)-2-oxoimidazolidine-4-carboxamide] | 10 nM
O=C1NC[C@@H](C(=O)NC(c2ccc(OC(F)(F)F)nc2)c2ccc(F)c(C(F)(F)F)n2)N1 (single isomer, unassigned) [Example 45B, (S)-N-((R or S)-(5-fluoro-6-(trifluoro-methyl)pyridin-2-yl)(6-(trifluoromethoxy)pyridin-3-yl)methyl)-2-oxoimidazolidine-4-carboxamide] | 125 nM
O=C1NC[C@@H](C(=O)NC(c2cnc(OCC(F)(F)F)c(F)c2)c2ccc(F)c(C(F)(F)F)n2)N1 (single isomer, unassigned) [Example 46B, (S)-N-((R or S)-(5-fluoro-6-(2,2,2-trifluoroethoxy)pyridin-3-yl)(5-fluoro-6-(trifluoromethyl)pyridin-2-yl)methyl)-2-oxoimidazolidine-4-carboxamide] | 27 nM and 6 nM
O=C1NC[C@@H](C(=O)NC(c2ccc(OC(F)(F)F)c(Cl)c2)c2coc(C(F)(F)F)n2)N1 (single isomer, unassigned) [Example 47A, (S)-N-((R or S)-(3-chloro-4-(trifluoro-methoxy)phenyl)(2-(trifluoromethyl)oxazo 1-4-yl)methyl)-2-oxoimidazolidine-4-carboxamide] | 5.2 nM
O=C1NC[C@@H](C(=O)NC(c2ccc(OC(F)(F)F)c(Cl)c2)c2coc(C(F)(F)F)n2)N1 (single isomer, unassigned) [Example 47B, (S)-N-((R or S)-(3-chloro-4-(trifluoro-methoxy)phenyl)(2-(trifluoromethyl)oxazo 1-4-yl)methyl)-2-oxoimidazolidine-4-carboxamide] | 3.9 nM
O=C1NC[C@@H](C(=O)NC(c2cnc(C(F)(F)F)nc2)c2ccc(F)c(Cl)c2F)N1 (single isomer, unassigned) [Example 48, (S)-N-((R or S)-(3-chloro-2,4-difluorophenyl)(2-(trifluoromethyl)pyrimidin-5-yl)methyl)-2-oxoimidazolidine-4-carboxamide] | 16 nM
O=C1NC[C@@H](C(=O)NC(c2ccc(OC(F)(F)F)c(Cl)c2)c2ccnc(C(F)(F)F)n2)N1 (single isomer, unassigned) [Example 49A, (S)-N-((R or S)-3-chloro-4-(trifluoro-methoxy)phenyl)(2-(trifluoromethyl)pyrimidin-4-yl)methyl)-2-oxoimidazolidine-4-carboxamide] | 7.6 nM
O=C1NC[C@@H](C(=O)NC(c2ccc(OC(F)(F)F)c(Cl)c2)c2ccnc(C(F)(F)F)n2)N1 (single isomer, unassigned) [Example 49B, (S)-N-((R or S)-3-chloro-4-(trifluoro-methoxy)phenyl)(2-(trifluoromethyl)pyrimidin-4-yl)methyl)-2-oxoimidazolidine-4-carboxamide] | 6.8 nM
